{
  "source": "patent US5057493A",
  "about": "“Novel antibiotics R106” (priority 1988, dated 1991)",
  "test_in_all_cases": "MIC by agar dilution method, casitone agar",
  "type_in_all_cases": "cell-based",
  "key": {"[1]": {"tested_on": "Candida albicans TIMM 0144", "conditions": "27° C. for 4 days", "protocol": "(§1) The minimum inhibitory concentration (MIC) of each antibiotic against various fungi was determined by the agar dilution method using casitone agar medium (2.0% glucose, 0.9% bacto-casitone, 1.0% yeast extract, 0.1% KH2 PO4, 0.1% Na2 HPO4, 1.0% sodium citrate, 2.0% agar: concentrations are all by w/v).\n(§2) Each minimum growth inhibitory concentration was determined after culturing at 27° C. for 4 days."}, "[2]": {"tested_on": "Candida albicans TIMM 1529", "conditions": "27° C. for 4 days", "protocol": "as §1, §2"}, "[3]": {"tested_on": "Candida albicans TIMM 1623", "conditions": "27° C. for 4 days", "protocol": "as §1, §2"}, "[4]": {"tested_on": "Candida albicans var. stellatoidia TIMM 1308", "conditions": "27° C. for 4 days", "protocol": "as §1, §2"}, "[5]": {"tested_on": "Candida parapsilosis TIMM 0287", "conditions": "27° C. for 4 days", "protocol": "as §1, §2"}, "[6]": {"tested_on": "Cryptococcus laurentii TIMM 0352", "conditions": "27° C. for 4 days", "protocol": "as §1, §2"}, "[7]": {"tested_on": "Cryptococcus neoformans TIMM 0354", "conditions": "27° C. for 4 days", "protocol": "as §1, §2"}, "[8]": {"tested_on": "Cryptococcus neoformans TIMM 0363", "conditions": "27° C. for 4 days", "protocol": "as §1, §2"}, "[9]": {"tested_on": "Cryptococcus terreus TIMM 0424", "conditions": "27° C. for 4 days", "protocol": "as §1, §2"}, "[10]": {"tested_on": "Rhodotorula rubra TIMM 0923", "conditions": "27° C. for 4 days", "protocol": "as §1, §2"}, "[11]": {"tested_on": "Aspergillus flavus TIMM 0058", "conditions": "27° C. for 7 days"}, "[12]": {"tested_on": "Aspergillus nidulans TIMM 0112", "conditions": "27° C. for 7 days"}, "[13]": {"tested_on": "Aspergillus commune TIMM 1331", "conditions": "27° C. for 7 days"}, "[14]": {"tested_on": "Microsporum canis TIMM 0760", "conditions": "27° C. for 7 days"}, "[15]": {"tested_on": "Epidermophyton floccosum TIMM 0431", "conditions": "27° C. for 7 days"}, "[16]": {"tested_on": "Phialophora verrucosa TIMM 0903", "conditions": "27° C. for 7 days"}, "[17]": {"tested_on": "Exophiala werneckii TIMM 1334", "conditions": "27° C. for 7 days"}, "[18]": {"tested_on": "Geotrichum candidum TIMM 0694", "conditions": "27° C. for 7 days"}, "[19]": {"tested_on": "Blastomyces dermatitidis TIMM 1690", "conditions": "27° C. for 7 days"}},
  "note": "Starred links: 1 amine or outer side, 2 acyl side, 3 side chain; linkers in the order of their positions; H or OH if unused. Non-standard residues stand in square brackets, D forms with d. Residues, ends and D or L forms follow the SMILES beside them. ξ: configuration not given here. ξNMeVal(3-OH) = CNC(C(=O)O)C(C)(C)O; NMeF = CN[CH](Cc1ccccc1)C(=O)O; X1 = CCC(C)C(O[*:1])C(=O)[*:2]; NMeV = CN[CH](C(=O)O)C(C)C",
  "data": [
    {"smiles": "CCC(C)C1NC(=O)C2CCCN2C(=O)C(Cc2ccccc2)N(C)C(=O)C(Cc2ccccc2)NC(=O)C(C(C)C)N(C)C(=O)C(C(C)CC)OC(=O)C(C(C)(C)O)N(C)C(=O)C(CC(C)C)NC(=O)C(C(C)C)N(C)C1=O", "note": "(stereo not shown) [Compound 1] (cyclo([ξNMeVal(3-OH)][X1][NMeV]F[NMeF]PI[NMeV]L); configuration not given here)", "values": [
      {"measurement": "Minimum Inhibitory Concentration", "setting": "[1]", "value": "≤ 0.04", "unit": "µg/mL"},
      {"measurement": "Minimum Inhibitory Concentration", "setting": "[2]", "value": "≤ 0.04", "unit": "µg/mL"},
      {"measurement": "Minimum Inhibitory Concentration", "setting": "[3]", "value": "≤ 0.04", "unit": "µg/mL"},
      {"measurement": "Minimum Inhibitory Concentration", "setting": "[4]", "value": "≤ 0.04", "unit": "µg/mL"},
      {"measurement": "Minimum Inhibitory Concentration", "setting": "[5]", "value": 0.16, "unit": "µg/mL"},
      {"measurement": "Minimum Inhibitory Concentration", "setting": "[6]", "value": 0.31, "unit": "µg/mL"},
      {"measurement": "Minimum Inhibitory Concentration", "setting": "[7]", "value": 0.63, "unit": "µg/mL"},
      {"measurement": "Minimum Inhibitory Concentration", "setting": "[8]", "value": 1.25, "unit": "µg/mL"},
      {"measurement": "Minimum Inhibitory Concentration", "setting": "[9]", "value": 0.31, "unit": "µg/mL"},
      {"measurement": "Minimum Inhibitory Concentration", "setting": "[10]", "value": 0.63, "unit": "µg/mL"},
      {"measurement": "Minimum Inhibitory Concentration", "setting": "[11]", "value": "> 80", "unit": "µg/mL"},
      {"measurement": "Minimum Inhibitory Concentration", "setting": "[12]", "value": 0.16, "unit": "µg/mL"},
      {"measurement": "Minimum Inhibitory Concentration", "setting": "[13]", "value": 1.25, "unit": "µg/mL"},
      {"measurement": "Minimum Inhibitory Concentration", "setting": "[14]", "value": "> 80", "unit": "µg/mL"},
      {"measurement": "Minimum Inhibitory Concentration", "setting": "[15]", "value": 2.5, "unit": "µg/mL"},
      {"measurement": "Minimum Inhibitory Concentration", "setting": "[16]", "value": "> 80", "unit": "µg/mL"},
      {"measurement": "Minimum Inhibitory Concentration", "setting": "[17]", "value": 1.25, "unit": "µg/mL"},
      {"measurement": "Minimum Inhibitory Concentration", "setting": "[18]", "value": 0.63, "unit": "µg/mL"},
      {"measurement": "Minimum Inhibitory Concentration", "setting": "[19]", "value": "≤ 0.04", "unit": "µg/mL"}
    ]}
  ]
}
